Test results as given in ChEMBL document CHEMBL4340549, “Design, synthesis and biological evaluation of isochroman-4-one hybrids bearing piperazine moiety as antihypertensive agent candidates” (Bioorg Med Chem, 2019).

Key:
[1] = test system: Rattus norvegicus; experiment: Antihypertensive activity in spontaneously hypertensive rat assessed as diastolic arterial pressure at 80 mg/kg, po measured after 6 hrs by tail-cuff method (reference value: 137.54 +/- 9.2 mmHg); type: functional
[2] = test system: Rattus norvegicus; experiment: Antihypertensive activity in spontaneously hypertensive rat assessed as mean arterial pressure at 80 mg/kg, po measured after 6 hrs by tail-cuff method (reference value: 151.48 +/- 12.24 mmHg); type: functional
[3] = test system: Thoracic aorta; experiment: Vasodilatory activity in Sprague-Dawley rat thoracic aorta assessed as inhibition of noradrenaline-induced contractions at 10 uM relative to untreated control; type: functional
[4] = test system: Thoracic aorta; experiment: Vasodilatory activity in Sprague-Dawley rat thoracic aorta assessed as inhibition of noradrenaline-induced contractions at 100 uM relative to untreated control; type: functional
[5] = biological target: T1, Alpha-1D adrenergic receptor (Rattus norvegicus, UniProt P23944); experiment: Antagonist activity at alpha-1D adrenergic receptor in SPF rat vas thoracic aorta assessed as inhibition of noradrenaline-induced contractions; conditions: read-out: pA2 (converted)
T1 sequence (P23944 whole entry): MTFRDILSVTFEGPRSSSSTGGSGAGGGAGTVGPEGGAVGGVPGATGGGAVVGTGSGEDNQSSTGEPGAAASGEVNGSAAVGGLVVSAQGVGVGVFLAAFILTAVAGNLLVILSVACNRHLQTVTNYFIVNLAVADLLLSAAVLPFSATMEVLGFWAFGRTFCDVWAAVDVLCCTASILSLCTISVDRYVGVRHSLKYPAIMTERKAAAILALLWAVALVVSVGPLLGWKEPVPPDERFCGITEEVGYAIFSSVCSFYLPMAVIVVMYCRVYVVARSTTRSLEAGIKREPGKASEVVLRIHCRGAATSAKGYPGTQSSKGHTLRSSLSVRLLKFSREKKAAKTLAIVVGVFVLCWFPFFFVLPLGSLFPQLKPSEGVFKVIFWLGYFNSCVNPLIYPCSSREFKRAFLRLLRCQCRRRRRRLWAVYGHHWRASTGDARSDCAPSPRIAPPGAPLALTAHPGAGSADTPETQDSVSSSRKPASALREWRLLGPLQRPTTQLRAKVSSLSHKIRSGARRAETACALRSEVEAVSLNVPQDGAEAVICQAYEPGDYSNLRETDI

[6] = biological target: T2, Alpha-1A adrenergic receptor (Rattus norvegicus, UniProt P43140); experiment: Antagonist activity at alpha-1a adrenergic receptor in SPF rat prostatic vas deferens assessed as inhibition of noradrenaline-induced contractions; conditions: read-out: pA2 (converted)
T2 sequence (P43140 whole entry): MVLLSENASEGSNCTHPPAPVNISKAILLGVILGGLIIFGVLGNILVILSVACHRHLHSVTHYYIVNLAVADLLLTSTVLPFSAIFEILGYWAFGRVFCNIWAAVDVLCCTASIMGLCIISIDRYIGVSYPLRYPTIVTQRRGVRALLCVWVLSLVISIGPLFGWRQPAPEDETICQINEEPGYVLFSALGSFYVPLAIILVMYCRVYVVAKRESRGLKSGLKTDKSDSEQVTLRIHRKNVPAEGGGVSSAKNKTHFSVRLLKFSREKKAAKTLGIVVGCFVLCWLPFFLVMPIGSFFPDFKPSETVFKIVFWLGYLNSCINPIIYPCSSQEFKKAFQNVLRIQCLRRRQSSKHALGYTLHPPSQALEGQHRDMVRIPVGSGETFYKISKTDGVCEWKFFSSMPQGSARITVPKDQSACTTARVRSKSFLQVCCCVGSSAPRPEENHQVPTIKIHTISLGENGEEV

[7] = test system: Rattus norvegicus; experiment: Antihypertensive activity in spontaneously hypertensive rat assessed as systolic arterial pressure at 80 mg/kg, po measured after 0 hrs by tail-cuff method (reference value: 186.10 +/- 4.55 mmHg); type: functional
[8] = test system: Rattus norvegicus; experiment: Antihypertensive activity in spontaneously hypertensive rat assessed as diastolic arterial pressure at 80 mg/kg, po measured after 0 hrs by tail-cuff method (reference value: 149.50 +/- 5.4 mmHg); type: functional
[9] = test system: Rattus norvegicus; experiment: Antihypertensive activity in spontaneously hypertensive rat assessed as mean arterial pressure at 80 mg/kg, po measured after 0 hrs by tail-cuff method (reference value: 161.70 +/- 5.12 mmHg); type: functional
[10] = test system: Rattus norvegicus; experiment: Antihypertensive activity in spontaneously hypertensive rat assessed as systolic arterial pressure at 80 mg/kg, po measured after 1 hr by tail-cuff method (reference value: 185.35 +/- 10.30 mmHg); type: functional
[11] = test system: Rattus norvegicus; experiment: Antihypertensive activity in spontaneously hypertensive rat assessed as diastolic arterial pressure at 80 mg/kg, po measured after 1 hr by tail-cuff method (reference value: 147.33 +/- 9.8 mmHg); type: functional
[12] = test system: Rattus norvegicus; experiment: Effect on heart rate in spontaneously hypertensive rat assessed as heart rate level at 80 mg/kg, po measured after 1 hr by tail-cuff method (reference value: 415.25 +/- 14.7 bpm); type: ADME, organism-based; conditions: in vivo
[13] = test system: Rattus norvegicus; experiment: Antihypertensive activity in spontaneously hypertensive rat assessed as diastolic arterial pressure at 80 mg/kg, po measured after 2 hrs by tail-cuff method (reference value: 149.90 +/- 6 mmHg); type: functional
[14] = test system: Rattus norvegicus; experiment: Antihypertensive activity in spontaneously hypertensive rat assessed as mean arterial pressure at 80 mg/kg, po measured after 2 hrs by tail-cuff method (reference value: 163 +/- 8.1 mmHg); type: functional
[15] = test system: Rattus norvegicus; experiment: Antihypertensive activity in spontaneously hypertensive rat assessed as systolic arterial pressure at 80 mg/kg, po measured after 4 hrs by tail-cuff method (reference value: 178.66 +/- 17.18 mmHg); type: functional
[16] = test system: Rattus norvegicus; experiment: Antihypertensive activity in spontaneously hypertensive rat assessed as mean arterial pressure at 80 mg/kg, po measured after 4 hrs by tail-cuff method (reference value: 150.30 +/- 9.26 mmHg); type: functional
[17] = test system: Rattus norvegicus; experiment: Effect on heart rate in spontaneously hypertensive rat assessed as heart rate level at 80 mg/kg, po measured after 4 hrs by tail-cuff method (reference value: 410.80 +/- 17.4 bpm); type: ADME, organism-based; conditions: in vivo
[18] = test system: Rattus norvegicus; experiment: Antihypertensive activity in spontaneously hypertensive rat assessed as systolic arterial pressure at 80 mg/kg, po measured after 6 hrs by tail-cuff method (reference value: 179.36 +/- 18.33 mmHg); type: functional
[19] = test system: Rattus norvegicus; experiment: Antihypertensive activity in spontaneously hypertensive rat assessed as systolic arterial pressure at 80 mg/kg, po measured after 8 hrs by tail-cuff method (reference value: 179.42 +/- 13.70 mmHg); type: functional
[20] = test system: Rattus norvegicus; experiment: Antihypertensive activity in spontaneously hypertensive rat assessed as diastolic arterial pressure at 80 mg/kg, po measured after 8 hrs by tail-cuff method (reference value: 140.61 +/- 10.3 mmHg); type: functional
[21] = test system: Rattus norvegicus; experiment: Antihypertensive activity in spontaneously hypertensive rat assessed as mean arterial pressure at 80 mg/kg, po measured after 8 hrs by tail-cuff method (reference value: 153.55 +/- 11.43 mmHg); type: functional
[22] = test system: Rattus norvegicus; experiment: Effect on heart rate in spontaneously hypertensive rat assessed as heart rate level at 80 mg/kg, po measured after 8 hrs by tail-cuff method (reference value: 412.77 +/- 11.3 bpm); type: ADME, organism-based; conditions: in vivo
[23] = test system: Rattus norvegicus; experiment: Antihypertensive activity in spontaneously hypertensive rat assessed as reduction in mean arterial pressure at 80 mg/kg, po measured after 4 hrs by tail-cuff method; type: functional; set-up: scale not given: the % may be the effect or the level left

Kb [5]: 189 to 195 nM
Kb [6]: 224 nM
Compound: COc1cc2c(cc1OCC(O)CN1CCN(C(=O)C3CCCO3)CC1)C(=O)C(C)OC2 (stereo not drawn)
Activity [1]: 132.51 mmHg
Activity [2]: 140.83 mmHg
inhibition at 10 µM [3]: 41.6%
inhibition at 100 µM [4]: 64%
Activity [7]: 187.64 mmHg
Activity [8]: 156.23 mmHg
Activity [9]: 166.7 mmHg
Activity [10]: 169.21 mmHg
Activity [11]: 144.15 mmHg
Activity [12]: 409.3 bpm
Activity [13]: 131.86 mmHg
Activity [14]: 138.17 mmHg
Activity [15]: 140.29 mmHg
Activity [16]: 127.12 mmHg
Activity [17]: 405.15 bpm
Activity [18]: 157.46 mmHg
Activity [19]: 170.38 mmHg
Activity [20]: 141.89 mmHg
Activity [21]: 151.39 mmHg
Activity [22]: 413.16 bpm
Activity [23]: 23.7%
